{
  "source": "patent US10660910B2",
  "about": "“Use of sedoheptulose for prevention or treatment of inflammation” (C7 SUGAR GMBH, priority 2013, dated 2020)",
  "key": {"[1]": {"system": "primary murine hepatocytes", "assay": "Primary murine hepatocyte culture, IL-6 mRNA by RT-PCR", "format": "cell-based, mouse", "conditions": "pre-cultured two days in GFS vs GF media, FIG. 3H", "procedure": "Hepatocytes were isolated from male wild-type and CARKL overexpressing mice after the mice were sacrificed by hepatic in situ collagenase perfusion. After perfusion, the liver was quickly removed, minced, and filtered through a cell strainer (Fisher Scientific, Inc) into a 50 ml sterile tube. Hepatocytes in the resulting filtrate were purified from the nonparenchymal cells by centrifugation steps. The isolated hepatocytes were seeded into plates at a concentration of 0.25×10^6/ml in respective DMEM-media containing 10% FBS and indicated carbohydrate mixes at 3 g/L (glucose and fructose (GF), or glucose, fructose and sedoheptulose (GFS)) at least two days before experiments were performed.\n(§1) Briefly, total RNA was extracted and reverse-transcribed using commercial kits (QIAGEN, Applied Biosystems). Quantitative real-time PCRs were performed on an AbiPRISM 7900HT real-time cycler using iTaq SYBR Green Supermix with ROX (BioRad) to measure CARKL, adiponectin, UCP-1, TNFa, IL-6, MCP-1, and beta-actin expression as previously described (Haschemi et al., Cell Metab. 15 (2012), 813-826). Expression of target gene was normalized to beta-actin expression. Relative expression of target gene was calculated by the delta-delta CT method."}, "[2]": {"system": "primary human adipocytes", "assay": "Extracellular acidification and oxygen consumption rates (XF-Analyzer) in human adipocytes", "format": "cell-based", "conditions": "adipocytes differentiated and cultured in sedoheptulose containing media vs controls", "procedure": "Stromal vascular fraction cells (SVFs) from subcutaneous white adipose tissue of a patient undergoing abdominal surgery were isolated as described before (Lindroos et al, Cell Metab. (2013), July 2; 18(1):62-74.). Briefly, adipose tissue was digested with Collagenase II (Worthington) and filtered. SVFs were separated from mature adipocytes by centrifugation, followed by the lysis of erythrocytes in the SVF-fraction (Buffer EL, Qiagen). The purified SVFs were cultured in DMEM/F12, 10% FBS (Gibco, Life Technologies). As soon as the cells reached confluence, they were washed with DMEM/F12 w/o glucose (Biowest) and the medium was replaced by DMEM/F12 with a total carbohydrate load of 3 g/L, containing 1.5 g/L glucose and fructose or 1 g/L each of glucose, fructose, and sedoheptulose, respectively. […]\nThe XF-Analyzer (Seahorse Bio.) was used to measure changes in cellular metabolism induced by different carbohydrates. Extracellular acidification rates (ECAR, mpH/min) and oxygen consumption rates (OCR, pmoles/min) were recorded in primary human adipocytes and primary murine hepatocytes according to the manufacture instructions. […] Changes induced by the different carbohydrate sources were expressed as relative change in % to illustrate the effect of each carbon source."}, "[3]": {"system": "primary bone marrow derived macrophages", "assay": "Bone marrow derived macrophages, basal cytokine mRNA (RT-PCR) and secretion (ELISA)", "format": "cell-based, mouse", "procedure": "FIG. 3: (A-E) Primary human adipocytes were obtained by differentiation of the stromal vascular cell fraction in the presence of glucose and fructose (GF, 1.5 g/L of each sugar; total carbohydrates 3 g/L) or sedoheptulose supplemented media, which was termed GFS (1 g/L of each sugar; total carbohydrates 3 g/L), for eight days. Subsequently mRNA levels of (A) CARKL, (B) adiponectin and (C) uncoupling protein 1 (UCP-1) was assessed by RT-PCR and compared between the groups. (D) Cellular oxygen consumption rates (OCR) and (E) extracellular acidification rates (ECAR) of adipocytes were recorded in the presence of indicated carbohydrate-mix (mean+/−S.D., n=9-11). (F) Tumor necrosis factor alpha (TNFa) and (G) interleukin 6 (IL-6) mRNA expression levels of mature murine adipocytes cultivated for three days in cell culture media containing either GF or GFS carbohydrate mix, or (H) IL-6 expression in primary murine hepatocytes, as well as (I) TNFa and (J) IL-6 mRNA levels in primary bone marrow derived macrophages, both cell types were pre-cultured for two days in GF or GFS media, were compared between respective groups. Secretion of (K) TNFa and (L) IL-6 cytokines over the period of two days was measured by ELISA in the supernatant of bone marrow derived macrophages. LPS-induced (100 ng/ml) secretion of (M) TNFa 2 hrs after activation and (N) IL-6 6 hrs after activation in the respective media by macrophages was also measured by ELISA. Data represents mean+/−S.D., n=3)\nMouse bones were isolated from male wild-type and CARKL overexpressing mice and bone marrow wash flushed, washed and cleared from redblood cells by lysis, and subsequently differentiated in DMEM containing 25 mM glucose and 20 ng/ml M-CSF. After 4 days, cells for osteoclast differentiation were harvested and seeded in corning osteo assay plates with differentiation media (see below), and for primary bone marrow derived macrophages (BMDM) the medium was renewed and further supplemented with M-SCF for two days. Differentiated BMDM were then seeded in respective DMEM-media containing 10% FBS and indicated carbohydrate mixes at 3 g/L (glucose and fructose (GF), or glucose, fructose and sedoheptulose (GFS)) at least two days before experiments were performed.\nas §1"}, "[4]": {"system": "primary human adipocytes", "assay": "Human adipocyte culture in GF or GFS media, gene expression by RT-PCR", "format": "cell-based", "procedure": "Stromal vascular fraction cells (SVFs) from subcutaneous white adipose tissue of a patient undergoing abdominal surgery were isolated as described before (Lindroos et al, Cell Metab. (2013), July 2; 18(1):62-74.). Briefly, adipose tissue was digested with Collagenase II (Worthington) and filtered. SVFs were separated from mature adipocytes by centrifugation, followed by the lysis of erythrocytes in the SVF-fraction (Buffer EL, Qiagen). The purified SVFs were cultured in DMEM/F12, 10% FBS (Gibco, Life Technologies). As soon as the cells reached confluence, they were washed with DMEM/F12 w/o glucose (Biowest) and the medium was replaced by DMEM/F12 with a total carbohydrate load of 3 g/L, containing 1.5 g/L glucose and fructose or 1 g/L each of glucose, fructose, and sedoheptulose, respectively. Two days after confluence (day 0), differentiation was induced by adding 1 μM dexamethasone, 1.74 μM insulin, 5 μM troglitazone, […], 17 μM pantothenic acid and 33 μM biotin. After two days, IBMX and dexamethasone were omitted, while insulin and troglitazone were removed on day 4. 50% of the medium was replaced on day 6. Two days later, the cells were harvested for RNA isolation (RNeasy mini kit, Qiagen).\nas §1"}},
  "data": [
    {"smiles": "O=C(CO)[C@@H](O)[C@H](O)[C@H](O)[C@H](O)CO", "note": "[sedoheptulose, Sedoheptulose]", "values": [
      {"measurement": "IL-6 expression", "setting": "[1]", "result": "less"},
      {"measurement": "cellular oxygen consumption rates (OCR)", "setting": "[2]; FIG. 3D", "result": "increased"},
      {"measurement": "extracellular acidification rates (ECAR)", "setting": "[2]; FIG. 3E", "result": "comparable"},
      {"measurement": "basal TNFa mRNA expression", "setting": "[3]; pre-cultured two days in GFS vs GF media, FIG. 3I", "result": "blocked"},
      {"measurement": "basal IL-6 mRNA expression", "setting": "[3]; pre-cultured two days in GFS vs GF media, FIG. 3J", "result": "blocked"},
      {"measurement": "basal TNFa cytokine secretion", "setting": "[3]; supernatant over two days, ELISA, GFS vs GF media, FIG. 3K", "result": "blocked"},
      {"measurement": "basal IL-6 cytokine secretion", "setting": "[3]; supernatant over two days, ELISA, GFS vs GF media, FIG. 3L", "result": "blocked"},
      {"measurement": "sedoheptulose kinase CARKL mRNA expression", "setting": "[4]; GFS media (1 g/L each glucose, fructose, sedoheptulose) vs GF (1.5 g/L each), eight days differentiation, FIG. 3A", "result": "increase"},
      {"measurement": "adiponectin expression", "setting": "[4]; GFS vs GF treated cells, eight days, FIG. 3B", "result": "increase"},
      {"measurement": "UCP-1 expression", "setting": "[4]; GFS vs GF treated cells, eight days, FIG. 3C", "result": "increase"}
    ]}
  ]
}
